Experimental data published in the NIST ThermoML archive (doi:10.1021/je900596d).
Numbers after ± are expanded uncertainties.

Conditions: 343.18 K, Liquid, Vibrating tube method

FC(F)=C(F)C(F)(F)F [hexafluoropropene]
Conditions	mass density [kg/m3]
2323.3 kPa	1027.29 ± 1.1
2331.8 kPa	1027.71 ± 1.1
2340.3 kPa	1028.3 ± 1.1
2348.6 kPa	1028.71 ± 1.1
2357.9 kPa	1029.39 ± 1.1
2367.9 kPa	1029.94 ± 1.1
2376.2 kPa	1030.38 ± 1.1
2386.7 kPa	1030.85 ± 1.1
2396.9 kPa	1031.35 ± 1.1
2403.7 kPa	1031.5 ± 1.1
2413.7 kPa	1032.28 ± 1.1
2426.4 kPa	1032.67 ± 1.2
2437.3 kPa	1033.33 ± 1.2
2447 kPa	1034.04 ± 1.2
2457.9 kPa	1034.52 ± 1.2
2464 kPa	1034.92 ± 1.2
2470.6 kPa	1035.47 ± 1.2
2480.5 kPa	1035.86 ± 1.2
2486.7 kPa	1036.28 ± 1.1
2497.1 kPa	1037.07 ± 1.1
2503.3 kPa	1037.46 ± 1.1
2522.8 kPa	1038.69 ± 1.1
2540.4 kPa	1039.48 ± 1.1
2556.8 kPa	1040.31 ± 1.1
2578.1 kPa	1041.52 ± 1.1
2596.9 kPa	1042.44 ± 1.1
2616.9 kPa	1043.45 ± 1.1
2632.9 kPa	1044.34 ± 1.1
2650.6 kPa	1045.42 ± 1.1
2671.6 kPa	1046.57 ± 1.1
2693 kPa	1047.89 ± 1.1
2710.6 kPa	1048.77 ± 1.1
2730.2 kPa	1049.48 ± 1.1
2747.6 kPa	1050.19 ± 1.1
2764.4 kPa	1050.73 ± 1.1
2782.1 kPa	1051.54 ± 1.1
2799.6 kPa	1052.3 ± 1.1
2815.7 kPa	1053.03 ± 1.1
2831.9 kPa	1053.99 ± 1.1
2852.2 kPa	1055 ± 1.1
2887.1 kPa	1056.99 ± 1.1
2909.8 kPa	1058.07 ± 1.1
2930.4 kPa	1058.89 ± 1.1
2950.3 kPa	1059.55 ± 1.1
2967.4 kPa	1060.2 ± 1.1
2986 kPa	1061.16 ± 1.1
3013.7 kPa	1062.17 ± 1.1
3046.6 kPa	1063.75 ± 1.1
3078.2 kPa	1064.77 ± 1.1
3103.6 kPa	1065.88 ± 1.1
3134.8 kPa	1067.08 ± 1.1
3168.5 kPa	1068.48 ± 1.1
3201.9 kPa	1069.74 ± 1.1
3235.7 kPa	1071.04 ± 1.1
3266.7 kPa	1072.23 ± 1.1
3300.3 kPa	1073.66 ± 1.1
3332 kPa	1075.03 ± 1.1
3361.4 kPa	1076.36 ± 1.1
3394.9 kPa	1077.6 ± 1.1
3430.3 kPa	1078.63 ± 1.1
3463.3 kPa	1079.82 ± 1.1
3496.3 kPa	1081.01 ± 1.1
3518.3 kPa	1081.82 ± 1.2
3550.7 kPa	1083.01 ± 1.1
3586.6 kPa	1084.11 ± 1.2
3619.2 kPa	1085.32 ± 1.1
3651.4 kPa	1086.39 ± 1.2
3686 kPa	1087.66 ± 1.1
3728.2 kPa	1089.03 ± 1.1
3764.5 kPa	1090.25 ± 1.1
3805.5 kPa	1091.78 ± 1.1
3846.6 kPa	1092.95 ± 1.1
3882.5 kPa	1093.89 ± 1.1
3923.8 kPa	1095.4 ± 1.2
3956.8 kPa	1096.28 ± 1.1
3999.1 kPa	1097.44 ± 1.1
4049.2 kPa	1099.28 ± 1.1
4092.3 kPa	1100.59 ± 1.1
4134.3 kPa	1101.91 ± 1.1
4183.8 kPa	1102.89 ± 1.1
4226.9 kPa	1104.11 ± 1.1
4279.1 kPa	1105.63 ± 1.1
4326.3 kPa	1106.67 ± 1.1
4369.2 kPa	1107.87 ± 1.2
4410.8 kPa	1109.1 ± 1.2
4451.8 kPa	1110.42 ± 1.1
4504 kPa	1111.78 ± 1.1
4556.4 kPa	1112.8 ± 1.2
4599.1 kPa	1114.05 ± 1.2
4697.6 kPa	1116.51 ± 1.1
4742.5 kPa	1117.74 ± 1.2
4786.3 kPa	1118.99 ± 1.2
4833.9 kPa	1120.08 ± 1.1
4887.4 kPa	1121.18 ± 1.1
4933.1 kPa	1122.24 ± 1.1
4985.1 kPa	1123.76 ± 1.2
5029 kPa	1124.72 ± 1.2
5073.9 kPa	1125.85 ± 1.1
5132.4 kPa	1127.18 ± 1.2
5174 kPa	1128.12 ± 1.2
5238.1 kPa	1129.48 ± 1.2
5301.9 kPa	1130.82 ± 1.2
5346.6 kPa	1131.66 ± 1.2
5387.9 kPa	1132.67 ± 1.2
5429.7 kPa	1133.71 ± 1.2
5474 kPa	1134.83 ± 1.2
5517.7 kPa	1135.51 ± 1.2
5596.3 kPa	1137.23 ± 1.2
5658.9 kPa	1138.61 ± 1.2
5702.1 kPa	1139.38 ± 1.2
5743.1 kPa	1140.46 ± 1.2
5803.5 kPa	1141.76 ± 1.2
5846.3 kPa	1142.59 ± 1.2
5891.3 kPa	1143.58 ± 1.2
5933.5 kPa	1144.39 ± 1.2
5995 kPa	1145.68 ± 1.2
6036 kPa	1146.23 ± 1.2
6160 kPa	1148.79 ± 1.2
6218.2 kPa	1149.66 ± 1.2
6324.7 kPa	1151.65 ± 1.2
6365.2 kPa	1152.43 ± 1.2
6407.3 kPa	1153.32 ± 1.2
6470.4 kPa	1154.32 ± 1.2
6550 kPa	1155.81 ± 1.2
6660.8 kPa	1157.92 ± 1.2
6725.9 kPa	1159.01 ± 1.2
6839.7 kPa	1161.35 ± 1.2
6887 kPa	1162.02 ± 1.2
6930.3 kPa	1162.69 ± 1.2
6976.6 kPa	1163.25 ± 1.2
7038.7 kPa	1164.35 ± 1.2
7080.9 kPa	1165.18 ± 1.2
7123.3 kPa	1165.76 ± 1.2
